In data set [1] the test system is human erythrocytes. Description: Haemolysis assay. The conditions noted are these: 30 min, 37 °C, result in words; for haemolysis (positive controls): human erythrocytes 4% (v/v), melittin 17 µM (50 µg/mL), triton X-100 0.1% (v/v); for haemolysis: human erythrocytes 4% (v/v) in PBS, 8, 32 and 128 µM, absorbance 540 nm, duplicates. As to the method:
The haemolysis assay is widely used to assess the therapeutic potential of a given AMP. AMPs that cause ruptured RBCs at their MICs naturally have low therapeutic potential.
Fresh human blood samples were obtained from healthy donors with the approval of the institutional medical ethics committee. Erythrocytes were isolated from heparinized human blood by centrifugation at 2000g for 5 min after washing three times with PBS at 4 °C. After removing the supernatant, the cell pellet was resuspended in 2 mL of PBS, and cells were diluted at 4% (v/v) for the haemolysis experiment. […] Samples were centrifuged at 2000g for 5 min, and the absorbance of supernatants was measured at 540 nm using a polarstar omega plate reader from BMG Labtech. Erythrocytes lysed with 0.1% triton X-100 and 50 µg/mL melittin were used as positive controls. Percentage haemolysis was calculated using the formula: Haemolysis (%) = (ASAMPLE − ANG)/(APC − ANG) × 100[ASAMPLE = Absorbance recorded for samples at 540 nm, ANG = Absorbance recorded for untreated (negative control) erythrocytes at 540 nm, APC = Absorbance recorded for Melittin treated (positive control) erythrocytes at 540 nm]. One-way ANOVA was used to establish the presence of significant groups, and Tukey’s test was subsequently utilized to conduct the comparison of means.

Data set [2] has as its system S. aureus membrane. Kind of data set: Membrane depolarization, DiOC2(3), flow cytometry. In kind it is cell-based. The conditions noted are these: 5 µM CCCP; DiOC2(3) 30 µM; result in words. The source says:
AMPs are reported to destroy bacterial cells by permeabilizing the membrane, followed by depolarization (Mitra et al. [2020]; Bhatt Mitra et al. [2020]). To explore if UBI-APBA utilized this strategy to adversely affect the survival of S. aureus, depolarization and permeabilization of S. aureus membrane was studied by flow cytometry. […] Furthermore, we investigated the permeabilization of the S. aureus membrane by assessing propidium iodide uptake (PI).
For the permeabilization study, peptide-treated cells were washed with saline followed by staining with DNA stain, propidium iodide (PI) at a final concentration of 45 µM (30 min at 37 °C and 120 rpm). Isopropanol treated cells were used as positive control. The % permeabilization was calculated after normalizing the values with respect to the untreated (0% permeabilization) and isopropanol treated cells (100% permeabilization).
Positive control for membrane depolarization studies was prepared by incubating bacteria under similar conditions with 5 µM CCCP.
A general note: In flow cytometry, cells or beads pass a laser one at a time.

Data set [3] has as its system S. aureus, ATCC 25,923. Description: MIC by resazurin (alamar blue) reduction, broth dilution. As to conditions: for growth inhibitory (bacteriostatic) / bactericidal effect on S. aureus: MIC and MBC assays, result in words. In kind it is cell-based. As to the method: (§1) The MICs were determined as the lowest concentration at which the conversion of the resazurin dye from blue to pink was absent. Conversely, the minimum bactericidal concentrations (MBC) were determined using the spot assay shown in Fig. 3a, where the absence of a bacterial lawn indicated the minimum required concentration for bacterial killing. […] Although UBI has been previously reported as bactericidal against S. aureus, the experimental conditions and strain utilized were different (Brouwer et al. [2006]).
A single colony of S. aureus, ATCC 25,923 (Microbiologics) was inoculated in Mueller Hinton broth (MHB) and incubated overnight at 120 rpm (revolutions per minute) and 37 °C. The experiment was carried out in a 96-microtiter plate using a broth dilution assay wherein all the peptides (ABI scientific) were diluted two-fold in each step-in media (M9 supplemented with 0.01% Tryptone). Cells were washed twice with media and diluted to a final concentration of 10^5 colony forming units (CFU) at each well. The final volume in each well was 200 µL. […] After 24 h, 30 µL of 0.75 mg/mL of resazurin dye (HiMedia Labs) was added in each of the wells and kept for incubation overnight at 37 °C with mild shaking. The next day, the 96 well plates as well as MHB-agar plates, were observed, and results were recorded. The experiment was carried out in triplicates. As mentioned earlier, S. aureus was cultured and washed with media to carry out a time-kill assay. Experiments were performed in microfuge tubes. ~10^6 cells were incubated with minimum inhibitory concentration (MIC) of UBI-APBA (2 µM) at a final volume of 500 µL adjusted with M9 media. Cells and UBI were incubated in media at 37 °C at 120 rpm. 50 µL aliquots from each reaction mixture were removed at required time intervals. These aliquots were plated on the MHB agar plates and incubated at 37 °C. The following day, colonies were counted to get CFU. Surviving fractions were plotted against time. Origin graphing and analysis 6.0 Pro software was used for plotting and analysis of data.
In general terms: Alamar Blue is a resazurin reagent that responds to reducing activity.

Data set [4] relates to S. aureus, ATCC 25,923. Description: MBC by spot assay on MHB-agar. The class given is cell-based. The conditions noted are these: 5 µL aliquots from MIC wells spotted on MHB-agar, overnight 37 °C, absence of bacterial lawn, triplicates. As to the method: as §1
A single colony of S. aureus, ATCC 25,923 (Microbiologics) was inoculated in Mueller Hinton broth (MHB) and incubated overnight at 120 rpm (revolutions per minute) and 37 °C. The experiment was carried out in a 96-microtiter plate using a broth dilution assay wherein all the peptides (ABI scientific) were diluted two-fold in each step-in media (M9 supplemented with 0.01% Tryptone). Cells were washed twice with media and diluted to a final concentration of 10^5 colony forming units (CFU) at each well. The final volume in each well was 200 µL. […] After 24 h, 30 µL of 0.75 mg/mL of resazurin dye (HiMedia Labs) was added in each of the wells and kept for incubation overnight at 37 °C with mild shaking. The next day, the 96 well plates as well as MHB-agar plates, were observed, and results were recorded. […] The following day, colonies were counted to get CFU. […]

The subject of data set [5] is HEK 293 cells. Kind of data set: Cell cytotoxicity (MTT) assay. The conditions noted are these: HEK 293, MTT, 24 h, result in words. As to the method: Human embryonic kidney (HEK 293) cells were maintained in DMEM supplemented with 10% FBS and 1% antibiotic-antimycotic solution at 37 °C, 5% CO2 in humidified atmosphere.
Cell cytotoxicity was measured by performing 3-(4,5-dimethylthiazol-2-yl)-2,5-diphenyltetrazolium bromide) (MTT) assay. Briefly, 2000 cells/100 µL were seeded in a 96-well plate and kept overnight in incubator at 37 °C, 5% CO2. […] Melittin (17 µM) was used as a positive control for cytotoxicity assay. Following incubation, 10 µL of MTT was added to each well and after 3 h the supernatant was removed and 100 µL of dimethyl sulfoxide (DMSO) was added. After 1 h incubation, the absorbance was recorded at 570 nm. One-way ANOVA was used to establish the presence of significant groups, and Tukey’s test was subsequently utilized to conduct the comparison of means.

For data set [6], the system named is S. aureus. As to conditions: different experimental conditions and strain; ref Brouwer et al. [2006]; cited from earlier work. As to the method:
The MICs were determined as the lowest concentration at which the conversion of the resazurin dye from blue to pink was absent. Conversely, the minimum bactericidal concentrations (MBC) were determined using the spot assay shown in Fig. 3a, where the absence of a bacterial lawn indicated the minimum required concent ...

Data set [7] in a line: In vitro stability of ^68Ga complexes in PBS. In kind it is physicochemical. As to conditions: 1:10 dilution, 37 °C, 3 h, radio-HPLC.
The conditions of data set [8]: shake-flask octanol/water 1:1 (25 µL sample + 975 µL water + 1 mL octanol), vortexed, 5 min, centrifuged; NaI(Tl) counting; n = 4. As to the method: Partition coefficients for ^68Ga complexes were determined by mixing 25 µL of sample with 975 µL water and 1 mL octanol (octanol: water = 1:1). Thereafter, the mixture was vortexed and incubated for 5 min, followed by centrifugation for 5 min at 3000 rpm for separation of aqueous and organic phase. NaI (Tl) counter was used to measure the activity associated with both the phases and log P value [logarithm of the activity concentration in n-Octanol / activity concentration in the aqueous layer] was calculated.

A short description of data set [9]: in vitro. As to conditions: human, human serum. As to the method:
The hydrophilicity of complexes is a predictor of fast renal clearance, which is desirable for diagnostic radiopharmaceuticals.
To assess the stability of the ^68Ga labeled peptide conjugates in PBS, 50 µL of complexes were added to 450 µL of PBS (1:10 dilution) and incubated at 37 °C for 3 h. Aliquots were taken at the end of incubation and analyzed by HPLC, as described previously. Similarly, to estimate the integrity of the ^68Ga complexes in serum, incubation was done with human serum at 1:10 dilution for 3 h at 37 °C. Samples were precipitated with 2% trichloroacetic acid (TCA), separated by centrifuging at 10,000g for 5 min, and analyzed by HPLC.

Entries after “also recorded” stand apart in the source; their conditions may differ.

One may read the MIC as the lowest concentration that inhibits growth of the organism. One may read the MBC as the lowest tested concentration that kills the bacteria rather than only halting them. What is called amount remaining is what is left of the initial amount, in per cent. The low end stands for a greater loss, the high end for greater stability.

For triton X-100, the “haemolysis (positive controls)” value in data set [1] is reported as “induced haemolysis”.
For `N#CC(C#N)=NNc1cccc(Cl)c1` [CCCP, Carbonyl cyanide m-chlorophenyl hydrazone], the “depolarization of bacterial membrane (positive control)” value in data set [2] is listed as “low red to green fluorescence intensity ratio”.
Take “Acetyl-cysteine-2-acetyl boronic acid [AcCys-2-APBA]”: the “growth inhibitory (bacteriostatic) / bactericidal effect on S. aureus” value in data set [3] was “no such effect”. The MIC in [3] (S. aureus ATCC 25,923, two-fold broth dilution in M9 + 0.01% Tryptone, 10^5 CFU per well, 200 µL, resazurin added after 24 h, overnight 37 °C, lowest concentration without blue-to-pink conversion, visual, triplicates) was over 32 µM. In [4], this compound showed an MBC of over 32 µM.
Take `CSCC[C@H](NC(=O)[C@H](CCCNC(=N)N)NC(=O)[C@H](CCCNC(=N)N)NC(=O)[C@H](CCCCN)NC(=O)[C@H](C)NC(=O)[C@H](CCCNC(=N)N)NC(=O)CNC(=O)[C@@H](N)[C@@H](C)O)C(=O)N[C@@H](CCC(N)=O)C(=O)N[C@@H](Cc1ccc(O)cc1)C(=O)N[C@@H](CC(N)=O)C(=O)N[C@@H](CCCNC(=N)N)C(=O)N[C@@H](CCCNC(=N)N)C(=O)NCC(=O)N[C@@H](CSCCCNC(=O)COc1ccc(C(C)=O)c(B(O)O)c1)C(N)=O` [UBI-APBA]: the haemolysis entry in [1] is recorded as “neither hemolytic nor cytotoxic”. Besides, the cell cytotoxicity entry in data set [5] (128 µM (64 × MIC of UBI-APBA), n = 3) was “minimal cytotoxicity; also recorded: neither hemolytic nor cytotoxic”.
As to `CSCC[C@H](NC(=O)[C@H](CCCNC(=N)N)NC(=O)[C@H](CCCNC(=N)N)NC(=O)[C@H](CCCCN)NC(=O)[C@H](C)NC(=O)[C@H](CCCNC(=N)N)NC(=O)CNC(=O)[C@@H](N)[C@@H](C)O)C(=O)N[C@@H](CCC(N)=O)C(=O)N[C@@H](Cc1ccc(O)cc1)C(=O)N[C@@H](CC(N)=O)C(=O)N[C@@H](CCCNC(=N)N)C(=O)N[C@@H](CCCNC(=N)N)C(=O)NCC(=O)N[C@@H](CS)C(N)=O` [UBI], the “growth inhibitory (bacteriostatic) / bactericidal effect on S. aureus” value in data set [3] is “no such effect”. In data set [6], the “activity against S. aureus as previously reported” value is on record as “bactericidal”. The haemolysis result in [1] is listed as “neither hemolytic nor cytotoxic”.
In the case of melittin, in [1], the “haemolysis (positive controls)” value is “induced haemolysis”. Besides, the “cell cytotoxicity (positive control)” value in data set [5] (melittin 17 µM) was “cytotoxic”.
For `CSCC[C@H](NC(=O)[C@H](CCCNC(=N)N)NC(=O)[C@H](CCCNC(=N)N)NC(=O)[C@H](CCCCN)NC(=O)[C@H](C)NC(=O)[C@H](CCCNC(=N)N)NC(=O)CNC(=O)[C@@H](NC(=O)CCC(C(=O)O)N1CCN(CC(=O)O)CCN(CC(=O)O)CC1)[C@@H](C)O)C(=O)N[C@@H](CCC(N)=O)C(=O)N[C@@H](Cc1ccc(O)cc1)C(=O)N[C@@H](CC(N)=O)C(=O)N[C@@H](CCCNC(=N)N)C(=O)N[C@@H](CCCNC(=N)N)C(=O)NCC(=O)N[C@@H](CS)C(N)=O` (stereo partly shown) [[^68Ga]Ga-UBI, metal not drawn], the “RCP after incubation in PBS” value in [7] came out at 99%. The “Partition coefficient, Log P” value in data set [8] is on record as -3.8 ± 0.15. In data set [9], this compound had a share remaining at 3 h of 97%.
In turn, `CSCC[C@H](NC(=O)[C@H](CCCNC(=N)N)NC(=O)[C@H](CCCNC(=N)N)NC(=O)[C@H](CCCCN)NC(=O)[C@H](C)NC(=O)[C@H](CCCNC(=N)N)NC(=O)CNC(=O)[C@@H](NC(=O)CCC(C(=O)O)N1CCN(CC(=O)O)CCN(CC(=O)O)CC1)[C@@H](C)O)C(=O)N[C@@H](CCC(N)=O)C(=O)N[C@@H](Cc1ccc(O)cc1)C(=O)N[C@@H](CC(N)=O)C(=O)N[C@@H](CCCNC(=N)N)C(=O)N[C@@H](CCCNC(=N)N)C(=O)NCC(=O)N[C@@H](CSCCCNC(=O)COc1ccc(C(C)=O)c(B(O)O)c1)C(N)=O` (stereo partly shown) [[^68Ga]Ga-UBI-APBA, metal not drawn] registered a fraction remaining at 3 h in data set [9] of 91%.

The values above are taken from publication PMC10965847, “Expanding a peptide-covalent probe hybrid for PET imaging of S. aureus driven focal infections” (EJNMMI Radiopharmacy and Chemistry, 2024).
